Source: patent publication US20220324835A1 (Nurix Therapeutics, Inc., priority 2018, published 2022)

How the values were obtained:
[1] = target: T1, Cbl-b (Homo sapiens, UniProt Q13191); assay: Cbl-b inhibition assay (Cbl-b activity assay, FRET, Biological Example 1; 100 mM NaCl, 60 nM Src kinase); format: biochemical; settings: upper bound stated in text lists; read-out: IC50 values in the Cbl-b inhibition assay of Biological Example 1
Method in brief: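 Binding-based Cbl-b activity assay. Src-phosphorylated, N-terminally biotin-Avi-tagged Cbl-b recruits labelled UbcH5B-Ub, and proximity to streptavidin-terbium yields FRET.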

[2] = system: T-cell; assay: IL-2 secretion from T-cells stimulated with anti-CD3 antibody alone (Biological Example 2); format: cell-based, human; settings: Homo sapiens, T-cell; 1 μM Cbl-b inhibitor; fold change over baseline (anti-CD3/anti-CD28 stimulated T-cells without inhibitor); read-out: IL-2 secretion Anti-CD3 stimulation
[3] = system: T-cell; assay: CD25 cell surface staining on T-cells co-stimulated with anti-CD3 and anti-CD28 antibody (Biological Example 2); format: cell-based, human; settings: Homo sapiens, T-cell, fold change over baseline (anti-CD3/anti-CD28 stimulated T-cells without inhibitor), read-out: CD25 staining Anti-CD3/Anti-CD28 stimulation; for fold induction at 0.3 µM: 0.3 μM Cbl-b inhibitor; for fold induction at 1 µM: 1 μM Cbl-b inhibitor
Method in brief: (§1)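 Values are fold-change over baseline: readings (IL-2 release, CD25 staining) from inhibitor-treated T-cells divided against untreated cells […]. No detailed procedure stated.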

[4] = system: T-cell; assay: CD25 cell surface staining on T-cells stimulated with anti-CD3 antibody alone (Biological Example 2); format: cell-based, human; settings: Homo sapiens, T-cell; 1 μM Cbl-b inhibitor; fold change over baseline (anti-CD3/anti-CD28 stimulated T-cells without inhibitor); read-out: CD25 staining Anti-CD3 stimulation
[5] = target: T1, Cbl-b; assay: Cbl-b activity assay (Cbl-b inhibition assay), TR-FRET of Cbl-b interaction with UbcH5B-Ub; format: biochemical; settings: assay buffer with 100 mM NaCl, 60 nM Src kinase; read-out: Cbl-b activity IC50
Method in brief: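 Compound-treated Cbl-b was incubated 1.5 h with Src kinase (60 nM final; 30 nM for asterisked values, which also used 50 mM instead of 100 mM NaCl), 1 mM ATP and 5 mM MgCl2. Binding to fluorescent Ub-loaded UbcH5B (C85K mutant) was then read by TR-FRET after 1 h more.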

[6] = system: T-cell; assay: IL-2 secretion from T-cells co-stimulated with anti-CD3 and anti-CD28 antibody (Biological Example 2); format: cell-based, human; settings: Homo sapiens, T-cell, fold change over baseline (anti-CD3/anti-CD28 stimulated T-cells without inhibitor), read-out: IL-2 secretion Anti-CD3/Anti-CD28 stimulation; for fold induction at 0.3 µM: 0.3 μM Cbl-b inhibitor; for fold induction at 1 µM: 1 μM Cbl-b inhibitor
Method in brief: as §1

T1 sequence (Q13191 36-427): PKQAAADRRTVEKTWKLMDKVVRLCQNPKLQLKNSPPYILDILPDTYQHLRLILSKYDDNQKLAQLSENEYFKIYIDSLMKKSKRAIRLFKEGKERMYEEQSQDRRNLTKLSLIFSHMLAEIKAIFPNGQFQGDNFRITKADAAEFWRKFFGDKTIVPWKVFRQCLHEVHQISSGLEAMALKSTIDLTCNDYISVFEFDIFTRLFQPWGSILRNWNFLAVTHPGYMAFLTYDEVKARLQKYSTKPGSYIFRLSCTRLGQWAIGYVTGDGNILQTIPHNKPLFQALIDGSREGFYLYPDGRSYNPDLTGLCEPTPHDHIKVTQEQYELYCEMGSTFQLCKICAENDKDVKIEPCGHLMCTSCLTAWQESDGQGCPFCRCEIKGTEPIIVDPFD

Compound | IC50 [1] [µM] | fold induction at 1 µM [2] | fold induction at 0.3 µM [3] | fold induction at 1 µM [3] | fold induction at 1 µM [4] | IC50 [5] [µM] | fold induction at 0.3 µM [6] | fold induction at 1 µM [6]
Cn1cnnc1CC1(c2cccc(N3Cc4c(cc(CN5Cc6cccc(F)c6C5)cc4C(F)(F)F)C3=O)c2)COC1 [Example 653, 6-((4-fluoroisoindolin-2-yl)methyl)-2-(3-(3-((4-methyl-4H-1,2,4-triazol-3-yl)methyl)oxetan-3-yl)phenyl)-4-(trifluoromethyl)isoindolin-1-one] | ≤ 0.1 | > 0.201 | 1.31 to 1.5 | 1.31 to 1.5 | > 1 | < 0.1 | 2.51 to 5 | > 7.5
Cn1cnnc1CC1(c2cccc(N3Cc4c(cc(CN5Cc6ccccc6C5)cc4C(F)(F)F)C3=O)c2)COC1 [Example 654, 6-(isoindolin-2-ylmethyl)-2-(3-(3-((4-methyl-4H-1,2,4-triazol-3-yl)methyl)oxetan-3-yl)phenyl)-4-(trifluoromethyl)isoindolin-1-one] | ≤ 0.1 | > 0.201 | 1.31 to 1.5 | 1.31 to 1.5 | > 1 | < 0.1 | 5 to 7.5 | > 7.5
Cn1cnnc1CC1(c2cccc(N3Cc4c(cc(CN5Cc6ccc(F)cc6C5)cc4C(F)(F)F)C3=O)c2)COC1 [Example 655, 6-((5-fluoroisoindolin-2-yl)methyl)-2-(3-(3-((4-methyl-4H-1,2,4-triazol-3-yl)methyl)oxetan-3-yl)phenyl)-4-(trifluoromethyl)isoindolin-1-one] | ≤ 0.1 | > 0.201 | 1.31 to 1.5 | 1.31 to 1.5 | > 1 | < 0.1 | 5 to 7.5 | > 7.5
COc1ccc2c(c1)CN(Cc1cc3c(c(C(F)(F)F)c1)CN(c1cccc(C4(Cc5nncn5C)COC4)c1)C3=O)C2 [Example 656, 6-((5-methoxyisoindolin-2-yl)methyl)-2-(3-(3-((4-methyl-4H-1,2,4-triazol-3-yl)methyl)oxetan-3-yl)phenyl)-4-(trifluoromethyl)isoindolin-1-one] | ≤ 0.1 | > 0.201 | 1.31 to 1.5 | 1.31 to 1.5 | > 1 | < 0.1 | > 7.5 | > 7.5
Cn1cnnc1CC1(c2cccc(N3Cc4c(cc(CN5Cc6cccnc6C5)cc4C(F)(F)F)C3=O)c2)COC1 [Example 660, 6-((5,7-dihydro-6H-pyrrolo[3,4-b]pyridin-6-yl)methyl)-2-(3-(3-((4-methyl-4H-1,2,4-triazol-3-yl)methyl)oxetan-3-yl)phenyl)-4-(trifluoromethyl)isoindolin-1-one] | ≤ 0.1 | > 0.201 | 1.31 to 1.5 | 1.31 to 1.5 | > 1 | < 0.1 | 2.51 to 5 | > 7.5
Cn1cnnc1CC1(c2cccc(N3Cc4c(cc(CN5CC[C@H](c6ccccc6)C5)cc4C(F)(F)F)C3=O)c2)COC1 [Example 662a, (R)-2-(3-(3-((4-methyl-4H-1,2,4-triazol-3-yl)methyl)oxetan-3-yl)phenyl)-6-((3-phenylpyrrolidin-1-yl)methyl)-4-(trifluoromethyl)isoindolin-1-one] | ≤ 0.1 | > 0.201 | 1.01 to 1.3 | 1.01 to 1.3 | 0.801 to 1 | < 0.1 | 5 to 7.5 | > 7.5
C[C@H]1CN(Cc2cc3c(c(C(F)(F)F)c2)CN(c2cccc(C4(Cc5nncn5C)COC4)c2)C3=O)CCO1 [Example 663a, (S)-2-(3-(3-((4-methyl-4H-1,2,4-triazol-3-yl)methyl)oxetan-3-yl)phenyl)-6-((2-methylmorpholino)methyl)-4-(trifluoromethyl)isoindolin-1-one] | ≤ 0.1 | > 0.201 | 1.31 to 1.5 | 1.31 to 1.5 | > 1 | < 0.1 | 5 to 7.5 | > 7.5
C[C@H](c1cc2c(c(C(F)(F)F)c1)CN(c1cccc(C3(Cc4nncn4C)COC3)c1)C2=O)N1CC(F)C1 [Example 668a, (R)-6-(1-(3-fluoroazetidin-1-yl)ethyl)-2-(3-(3-((4-methyl-4H-1,2,4-triazol-3-yl)methyl)oxetan-3-yl)phenyl)-4-(trifluoromethyl)isoindolin-1-one] | ≤ 0.1 | 0.101 to 0.15 | 1.31 to 1.5 | 1.51 to 1.75 | > 1 | < 0.1 | 2.51 to 5 | 5 to 7.5
C[C@@H](c1cc2c(c(C(F)(F)F)c1)CN(c1cccc(C3(Cc4nncn4C)COC3)c1)C2=O)N1CC(F)C1 [Example 668b, (S)-6-(1-(3-fluoroazetidin-1-yl)ethyl)-2-(3-(3-((4-methyl-4H-1,2,4-triazol-3-yl)methyl)oxetan-3-yl)phenyl)-4-(trifluoromethyl)isoindolin-1-one] | ≤ 0.1 | 0.151 to 0.2 | 1.31 to 1.5 | 1.51 to 1.75 | > 1 | < 0.1 | 5 to 7.5 | > 7.5
Cc1cc(C(=O)Nc2cccc(C3([C@H](F)c4nncn4C)COC3)c2)nc(C2CC2)n1 [Example 669a, (S)-2-cyclopropyl-N-(3-(3-(fluoro(4-methyl-4H-1,2,4-triazol-3-yl)methyl)oxetan-3-yl)phenyl)-6-methylpyrimidine-4-carboxamide] | ≤ 0.1 | 0.151 to 0.2 | 1.01 to 1.3 | 1.01 to 1.3 | > 1 | < 0.1 | 2.51 to 5 | 5 to 7.5
Cc1cc(C(=O)Nc2cccc(C3([C@@H](F)c4nncn4C)COC3)c2)nc(C2CC2)n1 [Example 669b, (R)-2-cyclopropyl-N-(3-(3-(fluoro(4-methyl-4H-1,2,4-triazol-3-yl)methyl)oxetan-3-yl)phenyl)-6-methylpyrimidine-4-carboxamide] | ≤ 0.1 | > 0.201 | 1.01 to 1.3 | 1.31 to 1.5 | > 1 | < 0.1 | 2.51 to 5 | > 7.5
Cn1cnnc1[C@@H](F)C1(c2cccc(N3Cc4c(cc(CN5C6CCC5CC6)cc4C(F)(F)F)C3=O)c2)COC1 [Example 671a, (S)-6-((7-azabicyclo[2.2.1]heptan-7-yl)methyl)-2-(3-(3-(fluoro(4-methyl-4H-1,2,4-triazol-3-yl)methyl)oxetan-3-yl)phenyl)-4-(trifluoromethyl)isoindolin-1-one] | ≤ 0.1 | > 0.201 | 1.51 to 1.75 | > 1.76 | 0.601 to 0.8 | < 0.1 | 2.51 to 5 | 5 to 7.5
Cn1cnnc1[C@H](F)C1(c2cccc(N3Cc4c(cc(CN5C6CCC5CC6)cc4C(F)(F)F)C3=O)c2)COC1 [Example 671b, (R)-6-((7-azabicyclo[2.2.1]heptan-7-yl)methyl)-2-(3-(3-(fluoro(4-methyl-4H-1,2,4-triazol-3-yl)methyl)oxetan-3-yl)phenyl)-4-(trifluoromethyl)isoindolin-1-one] | ≤ 0.1 | > 0.201 | > 1.76 | > 1.76 | > 1 | < 0.1 | > 7.5 | > 7.5
Cn1cnnc1[C@@H](F)C1(c2cccc(N3Cc4c(cc(CN5[C@@H]6CC[C@H]5C[C@@H](F)C6)cc4C(F)(F)F)C3=O)c2)COC1 [Example 672a, 2-(3-(3-((S)-fluoro(4-methyl-4H-1,2,4-triazol-3-yl)methyl)oxetan-3-yl)-phenyl)-6-(((1R,3S,5S)-3-fluoro-8-azabicyclo[3.2.1]octan-8-yl)methyl)-4-(trifluoromethyl)isoindolin-1-one] | ≤ 0.1 | > 0.201 | > 1.76 | > 1.76 | 0.801 to 1 | < 0.1 | 2.51 to 5 | > 7.5
